Assay results from US7655629B2, “Peptides and their use for the treatment of HIV infections” (priority 2002, dated 2010).
Like-named read-outs stand apart in the source and are kept apart here. Positions of bridges follow the written chain, without caps; N, C: chain ends. Non-standard residues stand in square brackets, D forms with d. Residues, ends and D or L forms follow the SMILES beside them. Chains are numbered I, II in the order given. Dip = N[C@H](C(=O)O)C(c1ccccc1)c1ccccc1; Bta = N[C@@H](Cc1csc2ccccc12)C(=O)O; Tic = O=C(O)[C@@H]1Cc2ccccc2CN1; dTic = O=C(O)[C@H]1Cc2ccccc2CN1; 3Thi = N[C@@H](Cc1ccsc1)C(=O)O

How the values were obtained:
[1] = test system: X4-tropic HIV-1 NL4-3; conditions: for IC50: read-out: IC50 NL4-3, P4-CCR5 cells, HIV-1 NL4-3, peptide 2 h before infection, readout three days after infection
Summary of the method: (§1)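 P4-CCR5 cells (CD4, CCR5, CXCR4, HIV-1 promoter-driven β-galactosidase) pretreated 2 h with peptide, then infected with virus containing 1 ng p24 antigen and incubated overnight. Cells washed and cultured without peptide; three days post-infection infectivity read by chemiluminescent β-galactosidase assay, in quintuplicate.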

[2] = test system: HIV-1 NL4-3 DTV; conditions: read-out: IC50 DTV, P4-CCR5 cells, peptide 2 h before infection, readout three days after infection
Summary of the method: as §1

[3] = human, plasma
[4] = dog, plasma
[5] = rat, plasma
[6] = cynomolgus monkey, plasma

| Compound | IC50 [1] | IC50 [2] | half-life [3] | half-life [4] | half-life [5] | half-life [6] | increase in anti-HIV activity in comparison to VIRIP ([1]; from IC50 against two HIV-1 strains (NL4-3, DTV)) |
| --- | --- | --- | --- | --- | --- | --- | --- |
| CC[C@H](C)[C@H](NC(=O)[C@H](C)NC(=O)[C@H](CCC(=O)O)NC(=O)[C@@H](N)CC(C)C)C(=O)N1CCC[C@H]1C(=O)N[C@H]1CSSC[C@@H](C(=O)N[C@H](C(=O)N[C@@H](C)C(=O)N2Cc3ccccc3C[C@@H]2C(=O)N[C@@H](CC(N)=O)C(=O)N[C@@H](CCCCN)C(=O)N2CCC[C@H]2C(=O)N2Cc3ccccc3C[C@@H]2C(=O)N[C@@H](Cc2ccccc2)C(=O)N[C@H](C(=O)N[C@@H](Cc2ccccc2)C(=O)O)C(C)C)C(C)C)NC(=O)[C@@H]2CCCN2C(=O)[C@@H]2CCCN2C(=O)[C@H]([C@@H](C)CC)NC(=O)[C@H](CO)NC1=O [VIR-166, LEAIPCSIPPCVA(D-Tic)NKP(D-Tic)FVF] (H-LEAIPCSIPPCVA[dTic]NKP[dTic]FVF-OH; disulfide 6-11) | 0.356 µM | 0.506 µM | 7.6 h | 11 h | 0.4 h | 12.1 h | – |
| CC[C@H](C)[C@H](NC(=O)[C@H](C)NC(=O)[C@H](CCC(=O)O)NC(=O)[C@@H](N)CC(C)C)C(=O)N1CCC[C@H]1C(=O)N[C@@H](CCSC)C(=O)N[C@@H](CO)C(=O)N[C@H](C(=O)N1CCC[C@H]1C(=O)N1CCC[C@@H]1C(=O)N[C@@H](CCC(=O)O)C(=O)N[C@H](C(=O)N[C@@H](C)C(=O)N[C@@H](Cc1ccccc1)C(=O)N[C@@H](CC(N)=O)C(=O)N[C@@H](CCCCN)C(=O)N1CCC[C@H]1C(=O)N[C@@H](Cc1ccccc1)C(=O)N[C@H](C(=O)N[C@@H](Cc1ccccc1)C(=O)O)C(C)C)C(c1ccccc1)c1ccccc1)[C@@H](C)CC [VIR-261, LEAIPMSIPpE(3,3-diphenylalanine)AFNKPFVF] (H-LEAIPMSIP[dP]E[Dip]AFNKPFVF-OH) | 0.538 µM | 1.03 µM | 7 h | 15.1 h | 0.2 h | 6.5 h | – |
| CC[C@H](C)[C@H](NC(=O)[C@H](C)NC(=O)[C@H](CCC(=O)O)NC(=O)[C@@H](N)CC(C)C)C(=O)N1CCC[C@H]1C(=O)N[C@@H](CCSC)C(=O)N[C@@H](CO)C(=O)N[C@H](C(=O)N1CCC[C@H]1C(=O)N1CCC[C@@H]1C(=O)N[C@@H](CCC(=O)O)C(=O)N[C@H](C(=O)N1Cc2ccccc2C[C@H]1C(=O)N[C@@H](Cc1ccccc1)C(=O)N[C@@H](CC(N)=O)C(=O)N[C@@H](CCCCN)C(=O)N1CCC[C@H]1C(=O)N[C@@H](Cc1ccccc1)C(=O)N[C@H](C(=O)N[C@@H](Cc1ccccc1)C(=O)O)C(C)C)C(C)C)[C@@H](C)CC [VIR-263, LEAIPMSIPpEV(L-Tic)FNKPFVF] (H-LEAIPMSIP[dP]EV[Tic]FNKPFVF-OH) | 0.77 µM | 0.33 µM | – | – | – | – | – |
| CC[C@H](C)[C@H](NC(=O)[C@H](C)NC(=O)[C@H](CCC(=O)O)NC(=O)[C@@H](N)CC(C)C)C(=O)N1CCC[C@H]1C(=O)N[C@@H](CCSC)C(=O)N[C@@H](CO)C(=O)N[C@H](C(=O)N1CCC[C@H]1C(=O)N1CCC[C@@H]1C(=O)N[C@@H](CCC(=O)O)C(=O)N[C@H](C(=O)N[C@@H](Cc1csc2ccccc12)C(=O)N[C@@H](Cc1ccccc1)C(=O)N[C@@H](CC(N)=O)C(=O)N[C@@H](CCCCN)C(=O)N1CCC[C@H]1C(=O)N[C@@H](Cc1ccccc1)C(=O)N[C@H](C(=O)N[C@@H](Cc1ccccc1)C(=O)O)C(C)C)C(C)C)[C@@H](C)CC [VIR-264, LEAIPMSIPpEV(3-benzothienylalanine)FNKPFVF] (H-LEAIPMSIP[dP]EV[Bta]FNKPFVF-OH) | 0.59 µM | 0.7 µM | – | – | – | – | – |
| CC[C@H](C)[C@H](NC(=O)[C@H](C)NC(=O)[C@H](CCC(=O)O)NC(=O)[C@@H](N)CC(C)C)C(=O)N1CCC[C@H]1C(=O)N[C@@H](CCSC)C(=O)N[C@@H](CO)C(=O)N[C@H](C(=O)N1CCC[C@H]1C(=O)N1CCC[C@@H]1C(=O)N[C@@H](CCC(=O)O)C(=O)N[C@H](C(=O)N[C@@H](Cc1ccsc1)C(=O)N[C@@H](Cc1ccccc1)C(=O)N[C@@H](CC(N)=O)C(=O)N[C@@H](CCCCN)C(=O)N1CCC[C@H]1C(=O)N[C@@H](Cc1ccccc1)C(=O)N[C@H](C(=O)N[C@@H](Cc1ccccc1)C(=O)O)C(C)C)C(C)C)[C@@H](C)CC [VIR-265, LEAIPMSIPpEV(3-thienylalanine)FNKPFVF] (H-LEAIPMSIP[dP]EV[3Thi]FNKPFVF-OH) | 1.29 µM | 2.21 µM | – | – | – | – | – |
| CC[C@H](C)[C@H](NC(=O)[C@H](C)NC(=O)[C@H](CCC(=O)O)NC(=O)[C@@H](N)CC(C)C)C(=O)N1CCC[C@H]1C(=O)N[C@@H](CCSC)C(=O)N[C@@H](CO)C(=O)N[C@H](C(=O)N1CCC[C@H]1C(=O)N1CCC[C@@H]1C(=O)N[C@@H](CCC(=O)O)C(=O)N[C@H](C(=O)N[C@@H](Cc1c[nH]c2ccccc12)C(=O)N[C@@H](Cc1ccccc1)C(=O)N[C@@H](CC(N)=O)C(=O)N[C@@H](CCCCN)C(=O)N1CCC[C@H]1C(=O)N[C@@H](Cc1ccccc1)C(=O)N[C@H](C(=O)N[C@@H](Cc1ccccc1)C(=O)O)C(C)C)C(C)C)[C@@H](C)CC [VIR-266, LEAIPMSIPpEVWFNKPFVF] (H-LEAIPMSIP[dP]EVWFNKPFVF-OH) | 0.59 µM | 0.83 µM | – | – | – | – | – |
| CC[C@H](C)[C@H](NC(=O)[C@H](C)NC(=O)[C@H](CCC(=O)O)NC(=O)[C@@H](N)CC(C)C)C(=O)N1CCC[C@H]1C(=O)N[C@@H](CCSC)C(=O)N[C@@H](CO)C(=O)N[C@H](C(=O)N1CCC[C@H]1C(=O)N1CCC[C@@H]1C(=O)N[C@@H](CCC(=O)O)C(=O)N[C@H](C(=O)N[C@@H](C)C(=O)N[C@@H](Cc1ccccc1)C(=O)N[C@@H](CC(N)=O)C(=O)N[C@@H](CCCCN)C(=O)N1Cc2ccccc2C[C@H]1C(=O)N[C@@H](Cc1ccccc1)C(=O)N[C@H](C(=O)N[C@@H](Cc1ccccc1)C(=O)O)C(C)C)C(C)C)[C@@H](C)CC [VIR-268, LEAIPMSIPpEVAFNK(L-Tic)FVF] (H-LEAIPMSIP[dP]EVAFNK[Tic]FVF-OH) | 1.73 µM | 1.48 µM | – | – | – | – | – |
| CC[C@H](C)[C@H](NC(=O)[C@H](C)NC(=O)[C@H](CCC(=O)O)NC(=O)[C@@H](N)CC(C)C)C(=O)N1CCC[C@H]1C(=O)N[C@@H](CCSC)C(=O)N[C@H]1CSSC[C@@H](C(=O)N[C@@H](Cc2ccccc2)C(=O)N[C@@H](Cc2ccccc2)C(=O)N[C@@H](CC(N)=O)C(=O)N[C@@H](CCCCN)C(=O)N2CCC[C@H]2C(=O)N[C@@H](Cc2ccccc2)C(=O)N[C@H](C(=O)N[C@@H](Cc2ccccc2)C(=O)O)C(C)C)NC(=O)[C@H](CCC(=O)O)NC(=O)[C@@H]2CCCN2C(=O)[C@@H]2CCCN2C(=O)[C@H]([C@@H](C)CC)NC1=O [VIR-273] (H-LEAIPMCIPPECFFNKPFVF-OH; disulfide 7-12) | 0.332 µM | 1.1 µM | 4.2 h | 12.4 h | 0.1 h | 3.6 h | – |
| CC[C@H](C)[C@H](NC(=O)[C@H](C)NC(=O)[C@H](CCC(=O)O)NC(=O)[C@@H](N)CC(C)C)C(=O)N1CCC[C@H]1C(=O)N[C@@H](CCSC)C(=O)N[C@H]1CSSC[C@@H](C(=O)N[C@@H](CC(C)C)C(=O)N[C@@H](Cc2ccccc2)C(=O)NCC(=O)N[C@@H](CCCCN)C(=O)N2CCC[C@H]2C(=O)N[C@@H](Cc2ccccc2)C(=O)N[C@H](C(=O)N[C@@H](Cc2ccccc2)C(=O)O)C(C)C)NC(=O)[C@H](CCC(=O)O)NC(=O)[C@@H]2CCCN2C(=O)[C@@H]2CCCN2C(=O)[C@H]([C@@H](C)CC)NC1=O [VIR-274] (H-LEAIPMCIPPECLFGKPFVF-OH; disulfide 7-12) | 0.576 µM | 1.42 µM | 2 h | 9.5 h | 0.1 h | 2.8 h | – |
| CC[C@H](C)[C@H](NC(=O)[C@H](C)NC(=O)[C@H](CCC(=O)O)NC(=O)[C@@H](N)CC(C)C)C(=O)N1CCC[C@H]1C(=O)N[C@@H](CSSC[C@H](NC(=O)[C@@H]1CCCN1C(=O)[C@@H](NC(=O)[C@H](C)NC(=O)[C@H](CCC(=O)O)NC(=O)[C@@H](N)CC(C)C)[C@@H](C)CC)C(=O)N[C@@H](CO)C(=O)N[C@H](C(=O)N1CCC[C@H]1C(=O)N1CCC[C@H]1C(=O)N[C@@H](CCC(=O)O)C(=O)N[C@@H](Cc1ccccc1)C(=O)N[C@@H](CC(C)C)C(=O)N[C@@H](Cc1ccccc1)C(=O)NCC(=O)N[C@@H](CCCCN)C(=O)N1CCC[C@H]1C(=O)N[C@@H](Cc1ccccc1)C(=O)N[C@H](C(=O)N[C@@H](Cc1ccccc1)C(=O)O)C(C)C)[C@@H](C)CC)C(=O)N[C@@H](CO)C(=O)N[C@H](C(=O)N1CCC[C@H]1C(=O)N1CCC[C@H]1C(=O)N[C@@H](CCC(=O)O)C(=O)N[C@@H](Cc1ccccc1)C(=O)N[C@@H](CC(C)C)C(=O)N[C@@H](Cc1ccccc1)C(=O)NCC(=O)N[C@@H](CCCCN)C(=O)N1CCC[C@H]1C(=O)N[C@@H](Cc1ccccc1)C(=O)N[C@H](C(=O)N[C@@H](Cc1ccccc1)C(=O)O)C(C)C)[C@@H](C)CC [VIR-576] (I: H-LEAIPCSIPPEFLFGKPFVF-OH / II: H-LEAIPCSIPPEFLFGKPFVF-OH; disulfide I:6-II:6) | – | – | 5.8 h | 12.6 h | 2.6 h | 3.8 h | – |
| H-LEAIPMSIPPEFAFNKDFVF-OH [VIR-243] | 2.16 µM | 1.98 µM | – | – | – | – | – |
| H-LEAIPMSIPPEIAFNKPFVF-OH [VIR-184] | 1.99 µM | 5.39 µM | – | – | – | – | 4 fold |
| H-LEAIPMSIPPELAFAKPFVF-OH [VIR-182] | 2.25 µM | 2.97 µM | – | – | – | – | – |
| H-LEAIPMSIPPEVFFGKPFVF-OH [VIR-170] | 1.52 µM | 2 µM | – | – | – | – | – |
